# Assay results from patent publication US12577217B2, “15-PGDH inhibitor” (KYORIN Pharmaceutical Co., Ltd., priority 2019, dated 2026).
# Read-outs that look alike come from different tables or passages of the source.
# Target: T1, recombinant human 15-PGDH (Homo sapiens, UniProt P15428)
# T1 construct: purchased R&D Systems
# T1 sequence (P15428 1-266): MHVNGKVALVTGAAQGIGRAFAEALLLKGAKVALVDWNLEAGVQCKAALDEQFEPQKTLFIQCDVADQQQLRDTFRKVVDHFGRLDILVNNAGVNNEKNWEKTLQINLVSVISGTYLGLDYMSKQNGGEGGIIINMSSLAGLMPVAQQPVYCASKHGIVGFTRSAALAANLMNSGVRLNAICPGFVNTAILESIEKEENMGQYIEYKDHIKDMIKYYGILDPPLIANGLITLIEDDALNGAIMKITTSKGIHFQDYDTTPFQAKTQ
# Assay: 15-PGDH enzyme inhibition test
# Format: biochemical
# Conditions: 4 nM recombinant human 15-PGDH, 30 μM PGE2, 1 mM NAD+, 60 minutes after starting the reaction
# How it was run: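 Fluorescence (excitation 340 nm, emission 440 nm) measured 60 min after adding 1 mM NAD+ and 30 μM PGE2 to 4 nM recombinant human 15-PGDH, which had stood 12 min at room temperature with compound in pH 8.0 Tris-HCl buffer. Concentration-response curves yield IC50, binned into potency categories.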
Structure (SMILES),IC50 (read-out: IC50 Value),IC50 (IC50 Value)
Cn1nc2cc(N3CCOc4cc(C(=O)N5Cc6ccccc6C5)cnc43)ccn2c1=O [Example 8-103],< 10 nM,–
Cn1nc2cc(N3CCOc4cc(C(=O)N5CCc6ccccc65)cnc43)ccn2c1=O [Example 8-104],10 to 100 nM,–
COCCNC(=O)c1cnc2c(c1)OCCN2c1ccn2c(=O)n(C)nc2c1 [Example 8-105],< 10 nM,–
COCCN(C)C(=O)c1cnc2c(c1)OCCN2c1ccn2c(=O)n(C)nc2c1 [Example 8-106],< 10 nM,–
COCCCNC(=O)c1cnc2c(c1)OCCN2c1ccn2c(=O)n(C)nc2c1 [Example 8-107],< 10 nM,–
Cn1nc2cc(N3CCOc4cc(C(=O)N5C[C@H](O)C[C@H](O)C5)cnc43)ccn2c1=O [Example 8-108],10 to 100 nM,–
Cn1nc2cc(N3CCOc4cc(C(=O)N5CCCC(C(F)(F)F)C5)cnc43)ccn2c1=O (stereo not shown) [Example 8-109],< 10 nM,–
Cn1nc2cc(N3CCOc4cc(C(=O)N5CCCC(C)(C)C5)cnc43)ccn2c1=O [Example 8-110],< 10 nM,–
C#CC1CCN(C(=O)c2cnc3c(c2)OCCN3c2ccn3c(=O)n(C)nc3c2)CC1 [Example 8-111],< 10 nM,–
Cn1nc2cc(N3CCOc4cc(C(=O)N5CCC(=O)CC5)cnc43)ccn2c1=O [Example 8-112],–,10 to 100 nM
Cn1nc2cc(N3CCOc4cc(C(=O)N5CCC(Cl)CC5)cnc43)ccn2c1=O [Example 8-113],< 10 nM,–
Cn1nc2cc(N3CCOc4cc(C(=O)N5CCC(F)CC5)cnc43)ccn2c1=O [Example 8-114],< 10 nM,–
Cn1nc2cc(N3CCOc4cc(C(=O)N5CCC[C@@H](C(F)(F)F)C5)cnc43)ccn2c1=O [Example 8-115],< 10 nM,–
Cn1nc2cc(N3CCOc4cc(C(=O)N5CCC[C@H](C(F)(F)F)C5)cnc43)ccn2c1=O [Example 8-116],< 10 nM,–
COCn1nc2cc(N3CCCc4cc(C(=O)N5CCC(F)(F)C(C)C5)cnc43)ccn2c1=O (stereo not shown) [Example 8-117],< 10 nM,–
COCn1nc2cc(N3CCCc4cc(C(=O)N5CCC[C@H](C(F)F)C5)cnc43)ccn2c1=O [Example 8-118],< 10 nM,–
COCn1nc2cc(N3CCCc4cc(C(=O)N5CCC[C@@H](C(F)F)C5)cnc43)ccn2c1=O [Example 8-119],< 10 nM,–
COCn1nc2cc(N3CCCc4cc(C(=O)N5CC[C@H](C)C5)cnc43)ccn2c1=O [Example 8-120],< 10 nM,–
COCn1nc2cc(N3CCCc4cc(C(=O)N5CC[C@@H](C)C5)cnc43)ccn2c1=O [Example 8-121],< 10 nM,–
Cn1nc2cc(N3CCCc4cc(C(=O)N5CCC5)cnc43)ccn2c1=O [Example 8-122],< 10 nM,–
Cn1nc2cc(N3CCCc4cc(C(=O)N5CCCC5)cnc43)ccn2c1=O [Example 8-123],< 10 nM,–
Cn1nc2cc(N3CCCc4cc(C(=O)N5CCCCCC5)cnc43)ccn2c1=O [Example 8-124],< 10 nM,–
Cn1nc2cc(N3CCCc4cc(C(=O)N5CCCCCCC5)cnc43)ccn2c1=O [Example 8-125],< 10 nM,–
Cn1nc2cc(N3CCCc4cc(C(=O)N5CCOCC5)cnc43)ccn2c1=O [Example 8-126],10 to 100 nM,–
CN1CCN(C(=O)c2cnc3c(c2)CCCN3c2ccn3c(=O)n(C)nc3c2)CC1 [Example 8-127],10 to 100 nM,–

Structure (SMILES),IC50 (read-out: IC50 Value),IC50 (IC50 Value)
CC(=O)N1CCN(C(=O)c2cnc3c(c2)CCCN3c2ccn3c(=O)n(C)nc3c2)CC1 [Example 8-128],> 100 nM,–
Cn1nc2cc(N3CCCc4cc(C(=O)N5CC=CCC5)cnc43)ccn2c1=O [Example 8-129],< 10 nM,–
Cn1nc2cc(N3CCCc4cc(C(=O)N5CCc6ccccc6C5)cnc43)ccn2c1=O [Example 8-130],< 10 nM,–
Cn1nc2cc(N3CCCc4cc(C(=O)N5Cc6ccccc6C5)cnc43)ccn2c1=O [Example 8-131],< 10 nM,–
C[C@@H]1CCCCN1C(=O)c1cnc2c(c1)CCCN2c1ccn2c(=O)n(C)nc2c1 [Example 8-132],< 10 nM,–
C[C@H]1CCCCN1C(=O)c1cnc2c(c1)CCCN2c1ccn2c(=O)n(C)nc2c1 [Example 8-133],< 10 nM,–
C[C@@H]1CCCN(C(=O)c2cnc3c(c2)CCCN3c2ccn3c(=O)n(C)nc3c2)C1 [Example 8-134],< 10 nM,–
C[C@H]1CCCN(C(=O)c2cnc3c(c2)CCCN3c2ccn3c(=O)n(C)nc3c2)C1 [Example 8-135],< 10 nM,–
CC1CCN(C(=O)c2cnc3c(c2)CCCN3c2ccn3c(=O)n(C)nc3c2)CC1 [Example 8-136],< 10 nM,–
Cn1nc2cc(N3CCCc4cc(C(=O)N5CCC[C@@H](F)C5)cnc43)ccn2c1=O [Example 8-137],< 10 nM,–
Cn1nc2cc(N3CCCc4cc(C(=O)N5CCC[C@H](F)C5)cnc43)ccn2c1=O [Example 8-138],< 10 nM,–
Cn1nc2cc(N3CCCc4cc(C(=O)N5CCCC(F)(F)C5)cnc43)ccn2c1=O [Example 8-139],< 10 nM,–
Cn1nc2cc(N3CCCc4cc(C(=O)N5CCC(F)CC5)cnc43)ccn2c1=O [Example 8-140],< 10 nM,–
Cn1nc2cc(N3CCCc4cc(C(=O)N5CCCC(C)(F)C5)cnc43)ccn2c1=O (stereo not shown) [Example 8-141],< 10 nM,–
Cn1nc2cc(N3CCCc4cc(C(=O)N5CCC[C@@H](C(F)F)C5)cnc43)ccn2c1=O [Example 8-142],< 10 nM,–
Cn1nc2cc(N3CCCc4cc(C(=O)N5CCC[C@H](C(F)F)C5)cnc43)ccn2c1=O [Example 8-143],< 10 nM,–
CC1CN(C(=O)c2cnc3c(c2)CCCN3c2ccn3c(=O)n(C)nc3c2)CCC1(F)F (stereo not shown) [Example 8-144],< 10 nM,–
Cn1nc2cc(N3CCCc4cc(C(=O)N5CCC[C@@H](C(F)(F)F)C5)cnc43)ccn2c1=O [Example 8-145],10 to 100 nM,–
Cn1nc2cc(N3CCCc4cc(C(=O)N5CCC[C@H](C(F)(F)F)C5)cnc43)ccn2c1=O [Example 8-146],< 10 nM,–
CCn1nc2cc(N3CCCc4cc(C(=O)N5CCC5)cnc43)ccn2c1=O [Example 8-147],< 10 nM,–
CCn1nc2cc(N3CCCc4cc(C(=O)N5CCCC5)cnc43)ccn2c1=O [Example 8-148],< 10 nM,–
CCn1nc2cc(N3CCCc4cc(C(=O)N5CCCCCC5)cnc43)ccn2c1=O [Example 8-149],< 10 nM,–
CCn1nc2cc(N3CCCc4cc(C(=O)N5CCCCCCC5)cnc43)ccn2c1=O [Example 8-150],< 10 nM,–
CCn1nc2cc(N3CCCc4cc(C(=O)N5CCOCC5)cnc43)ccn2c1=O [Example 8-151],10 to 100 nM,–
CCn1nc2cc(N3CCCc4cc(C(=O)N5CCN(C)CC5)cnc43)ccn2c1=O [Example 8-152],10 to 100 nM,–

Structure (SMILES),IC50 (read-out: IC50 Value),IC50 (IC50 Value)
CCn1nc2cc(N3CCCc4cc(C(=O)N5CCN(C(C)=O)CC5)cnc43)ccn2c1=O [Example 8-153],> 100 nM,–
CCn1nc2cc(N3CCCc4cc(C(=O)N5CC=CCC5)cnc43)ccn2c1=O [Example 8-154],< 10 nM,–
CCn1nc2cc(N3CCCc4cc(C(=O)N5CCc6ccccc6C5)cnc43)ccn2c1=O [Example 8-155],< 10 nM,–
CCn1nc2cc(N3CCCc4cc(C(=O)N5Cc6ccccc6C5)cnc43)ccn2c1=O [Example 8-156],< 10 nM,–
CCn1nc2cc(N3CCCc4cc(C(=O)N5CCCC[C@H]5C)cnc43)ccn2c1=O [Example 8-157],10 to 100 nM,–
CCn1nc2cc(N3CCCc4cc(C(=O)N5CCCC[C@@H]5C)cnc43)ccn2c1=O [Example 8-158],< 10 nM,–
CCn1nc2cc(N3CCCc4cc(C(=O)N5CCC[C@@H](C)C5)cnc43)ccn2c1=O [Example 8-159],< 10 nM,–
CCn1nc2cc(N3CCCc4cc(C(=O)N5CCC[C@H](C)C5)cnc43)ccn2c1=O [Example 8-160],< 10 nM,–
CCn1nc2cc(N3CCCc4cc(C(=O)N5CCC(C)CC5)cnc43)ccn2c1=O [Example 8-161],< 10 nM,–
CCn1nc2cc(N3CCCc4cc(C(=O)N5CCC[C@@H](F)C5)cnc43)ccn2c1=O [Example 8-162],< 10 nM,–
CCn1nc2cc(N3CCCc4cc(C(=O)N5CCC[C@H](F)C5)cnc43)ccn2c1=O [Example 8-163],< 10 nM,–
CCn1nc2cc(N3CCCc4cc(C(=O)N5CCCC(F)(F)C5)cnc43)ccn2c1=O [Example 8-164],< 10 nM,–
CCn1nc2cc(N3CCCc4cc(C(=O)N5CCC(F)CC5)cnc43)ccn2c1=O [Example 8-165],< 10 nM,–
CCn1nc2cc(N3CCCc4cc(C(=O)N5CCCC(C)(F)C5)cnc43)ccn2c1=O (stereo not shown) [Example 8-166],< 10 nM,–
CCn1nc2cc(N3CCCc4cc(C(=O)N5CCC[C@@H](C(F)F)C5)cnc43)ccn2c1=O [Example 8-167],< 10 nM,–
CCn1nc2cc(N3CCCc4cc(C(=O)N5CCC[C@H](C(F)F)C5)cnc43)ccn2c1=O [Example 8-168],< 10 nM,–
CCn1nc2cc(N3CCCc4cc(C(=O)N5CCC(F)(F)C(C)C5)cnc43)ccn2c1=O (stereo not shown) [Example 8-169],< 10 nM,–
CCn1nc2cc(N3CCCc4cc(C(=O)N5CCC[C@@H](C(F)(F)F)C5)cnc43)ccn2c1=O [Example 8-170],10 to 100 nM,–
CCn1nc2cc(N3CCCc4cc(C(=O)N5CCC[C@H](C(F)(F)F)C5)cnc43)ccn2c1=O [Example 8-171],< 10 nM,–
Cn1nc2cc(N3CCOc4cc(C(=O)N5CCCCC5(C)C)cnc43)ccn2c1=O [Example 8-172],> 100 nM,–
Cn1nc2cc(N3CCOc4cc(C(=O)N5CCCC5(C)C)cnc43)ccn2c1=O [Example 8-173],10 to 100 nM,–
Cn1nc2cc(N3CCOc4cc(C(=O)NCCCO)cnc43)ccn2c1=O [Example 8-174],10 to 100 nM,–
CN(CCCO)C(=O)c1cnc2c(c1)OCCN2c1ccn2c(=O)n(C)nc2c1 [Example 8-175],10 to 100 nM,–
